Assay results reported in ChEMBL document CHEMBL3286326, “Chiral Resolution and Serendipitous Fluorination Reaction for the Selective Dopamine D3 Receptor Antagonist BAK2-66” (ACS Med Chem Lett, 2014).

Columns and labels:
D(2) dopamine receptor = D(2) dopamine receptor (Homo sapiens, UniProt P14416); experiment: Displacement of [3H]N-methylspiperone from human dopamine D2 receptor expressed in human HEK293 cell membrane for 1 hr by liquid scintillation counting analysis; type: cell membranes
D(4) dopamine receptor = target: T1, D(4) dopamine receptor (Homo sapiens, UniProt P21917); experiment: Displacement of [3H]N-methylspiperone from human dopamine D4 receptor expressed in human HEK293 cell membrane for 1 hr by liquid scintillation counting analysis; type: cell membranes
T1 sequence (P21917 whole entry): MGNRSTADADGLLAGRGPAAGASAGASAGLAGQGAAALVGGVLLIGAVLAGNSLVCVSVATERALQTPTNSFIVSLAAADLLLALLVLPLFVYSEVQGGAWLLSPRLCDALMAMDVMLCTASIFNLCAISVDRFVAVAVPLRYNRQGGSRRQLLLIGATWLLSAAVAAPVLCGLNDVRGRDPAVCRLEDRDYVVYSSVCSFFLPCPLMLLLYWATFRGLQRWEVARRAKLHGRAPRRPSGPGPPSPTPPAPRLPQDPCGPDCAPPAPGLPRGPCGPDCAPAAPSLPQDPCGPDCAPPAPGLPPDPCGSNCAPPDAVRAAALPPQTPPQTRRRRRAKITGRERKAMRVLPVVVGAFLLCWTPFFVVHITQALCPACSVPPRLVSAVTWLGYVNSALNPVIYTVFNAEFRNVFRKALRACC

D(3) dopamine receptor = D(3) dopamine receptor (Homo sapiens, UniProt P35462); experiment: biochemical
Sequence of D(3) dopamine receptor (P35462 whole entry): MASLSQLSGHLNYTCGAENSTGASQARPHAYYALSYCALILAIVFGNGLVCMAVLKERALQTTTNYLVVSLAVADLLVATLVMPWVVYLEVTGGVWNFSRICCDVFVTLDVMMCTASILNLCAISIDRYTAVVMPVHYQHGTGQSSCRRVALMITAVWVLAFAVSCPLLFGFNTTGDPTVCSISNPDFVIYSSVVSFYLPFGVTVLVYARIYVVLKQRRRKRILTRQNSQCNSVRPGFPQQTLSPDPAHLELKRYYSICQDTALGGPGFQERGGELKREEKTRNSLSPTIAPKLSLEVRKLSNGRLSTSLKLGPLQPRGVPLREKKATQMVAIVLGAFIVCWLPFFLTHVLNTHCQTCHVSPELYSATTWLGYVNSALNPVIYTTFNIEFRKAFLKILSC
Description: Displacement of [3H]N-methylspiperone from human dopamine D3 receptor expressed in human HEK293 cell membrane for 1 hr by liquid scintillation counting analysis

Sequence of D(2) dopamine receptor (P14416 whole entry): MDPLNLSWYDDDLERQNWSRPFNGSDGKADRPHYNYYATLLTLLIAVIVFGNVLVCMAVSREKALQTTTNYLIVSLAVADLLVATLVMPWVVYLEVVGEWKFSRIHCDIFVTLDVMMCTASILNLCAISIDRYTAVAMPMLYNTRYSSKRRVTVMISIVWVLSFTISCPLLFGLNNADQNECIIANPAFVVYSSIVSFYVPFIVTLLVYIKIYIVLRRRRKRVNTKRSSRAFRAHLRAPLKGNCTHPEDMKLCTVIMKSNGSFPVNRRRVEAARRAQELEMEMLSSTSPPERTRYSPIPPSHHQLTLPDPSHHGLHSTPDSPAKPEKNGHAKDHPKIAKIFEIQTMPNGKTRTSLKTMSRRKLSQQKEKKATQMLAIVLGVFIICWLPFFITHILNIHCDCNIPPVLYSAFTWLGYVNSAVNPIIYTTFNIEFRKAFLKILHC

In the case of `O=C(NCCC(CF)N1CCN(c2cccc(Cl)c2Cl)CC1)c1cc2ccccc2o1` (stereo not drawn), the Ki (D(2) dopamine receptor) is reported as 7.4 µM, the Ki (D(4) dopamine receptor) is reported as over 3 µM and the Ki (D(3) dopamine receptor) is reported as 560 nM.
